Laboratory results: patent publication US12329737B2, “Dendrilla membranosa compounds, derivatives thereof, and uses thereof” (UNIVERSITY OF SOUTH FLORIDA, priority 2018, dated 2025)
Converted amounts (≈) assume the structure as drawn.

Key:
J774A.1 = assay: mammalian cytotoxicity assay; format: cell-based
[1] = test system: multidrug resistant S. aureus biofilm; assay: minimum biofilm eradication concentration (MBEC), MRSA biofilm; format: cell-based; conditions: for MBEC90: 90% of population eradicated compared to no treatment
Text: Each sample tested in triplicate for all concentrations. Calculated based on no drug controls and represented as a log 10 scale. Error=±SEM. MBEC 90/50: level to which 90% or 50% of the population was eradicated compared to no treatment.

MRSA = assay: standard MRSA assay (MIC); format: cell-based; conditions: Staphylococcus aureus
MRSA biofilm = assay: standard biofilm assay; format: cell-based, Staphylococcus aureus

Structure (SMILES) | Cytotoxicity (μM) against strain J774A.1 (J774A.1) | other results
CC(=O)O[C@@H]1OC2OC(=O)[C@H](C)c3c([C@@]4(C)CCCC(C)(C)C4)ccc1c32 (stereo partly drawn) [Compound 1, aplysulphurin] | 12.3 µM | –
CC(=O)O[C@@H]1OC2OC(=O)[C@H](C)C3=C([C@@]4(C)CCCC(C)(C)C4)CCC1C32 (stereo partly drawn) [Compound 2, tetrahydroaplysulphurin] | >133 µM | –
COC(=O)[C@H](C)c1c([C@@]2(C)CCCC(C)(C)C2)ccc2c1C(=O)OC2 [Compound 3, membranolide] | 76.8 µM | MBEC90 [1]: < 25 mg/mL
COC(=O)[C@H](C)C1=C([C@@]2(C)CCCC(C)(C)C2)CCC2COC(=O)C12 (stereo partly drawn) [Compound 4, tetrahydromembranolide] | 64.9 µM | –
CO[C@H]1OC(=O)[C@H](C)c2c([C@@]3(C)CCCC(C)(C)C3)ccc(C=O)c21 [Compound 5, membranoid A] | 54.6 µM | –
CO[C@H]1O[C@H](OC)c2c1ccc([C@@]1(C)CCCC(C)(C)C1)c2[C@@H](C)C(=O)O [Compound 6, membranoid B] | >133 µM | –
CO[C@@H]1O[C@@H](OC)c2c1ccc([C@@]1(C)CCCC(C)(C)C1)c2[C@@H](C)C(=O)O [Compound 7, membranoid C] | >133 µM | MRSA biofilm bioactivity [1]: lacked MRSA biofilm bioactivity
CO[C@@H]1O[C@H](OC)c2c1ccc([C@@]1(C)CCCC(C)(C)C1)c2[C@@H](C)C(=O)O [Compound 8, membranoid D] | >133 µM | MRSA biofilm bioactivity [1]: lacked MRSA biofilm bioactivity
CO[C@H]1O[C@@H](OC)c2c1ccc([C@@]1(C)CCCC(C)(C)C1)c2[C@@H](C)C(=O)O [Compound 9, membranoid E] | 95 µM | –
C[C@H]1C(=O)O[C@@H](O)c2c(C=O)ccc([C@@]3(C)CCCC(C)(C)C3)c21 [Compound 10, membranoid G] | >151 µM | –
CO[C@@H]1O[C@@H](OC(C)=O)c2ccc([C@@]3(C)CCCC(C)(C)C3)c([C@@H](C)C(=O)O)c21 [Compound 11, membranoid X] | 62.9 µM | –
COC(=O)[C@H](C)c1c([C@@]2(C)CCCC(C)(C)C2)ccc2c1[C@H](O)OC2=O [Compound 12, membranoid Y] | >139 µM | –
CCC1=C(C=O)[C@H](C(=O)OC)CC[C@@H]1[C@@]1(C)CCCC(C)(C)C1 [Compound 17] | – | MBEC90 [1]: 50 mg/mL
CC(=O)O[C@@H]1OC2OC(=O)[C@H](C)[C@@]34OO[C@@]([C@@]5(C)CCCC(C)(C)C5)(CCC1C23)O4 (stereo partly drawn) [Compound 18, Tetrahydroaplytrioxolane] | – | MRSA biofilm bioactivity [1]: lacked MRSA biofilm bioactivity
CC(=O)O[C@@H]1O[C@H](OC(C)=O)[C@H]2C(=O)[C@@H]([C@@]3(C)CCCC(C)(C)C3)CC[C@@H]12 [Compound 19, keto-9, 11-dihydrogracilin A] | – | MBEC90 [1]: 50 mg/mL
C[C@@H](CO)c1c([C@@]2(C)CCCC(C)(C)C2)ccc(CO)c1CO [Compound 20, Mebranolide triol] | – | MRSA biofilm bioactivity [1]: lacked MRSA biofilm bioactivity
CC(=O)O[C@@H]1OC2OC(=O)C3=C(C)C([C@@]4(C)CCCC(C)(C)C4)CCC1C32 (stereo partly drawn) [Compound 24, Darwinolide] | 20.13 µM | MIC (MRSA): ~133 µM (≈ 50 µg/mL); MIC in a standard biofilm assay (MRSA biofilm): 33.2 µM (≈ 12.5 µg/mL); MBEC90 [1]: 35 mg/mL; mammalian (J773) toxicity (J774A.1; J773 cells, mammalian cytotoxicity assay): 73.4 µM
